Laboratory results published in patent publication US12295955B2, “TTP phosphorylation for the identification of personalized medicines” (KING FAISAL SPECIALIST HOSPITAL & RESEARCH CENTRE, priority 2019, dated 2025).

What was measured:
[1] = test system: phosphorylated TTP; experiment: Phosphorylated TTP level in ERBB2 overexpressing SKBR3 cells treated with ERBB2 inhibitor; format: cell-based; conditions: SKBR3 breast cancer cell line, FIG. 6B
[2] = test system: phosphorylated TTP/ZFP36; experiment: Western blotting of TTP/ZFP36 phosphorylation in cells treated with kinase inhibitor volasertib; format: cell-based
Method: The cells were lysed in a mixture of 0.5% NP40 buffer, protease inhibitor and phosphatase inhibitor. The calf intestinal alkaline phosphatase (CIP, Promega, Madison, WI, USA) was used to verify the phosphorylation status of TTP/ZFP36, 20 units were added to the cell lysate (per 250 ul). The cell lysates were loaded and subjected to electrophoresis on 4-12% NuPAGE Bis-Tris gel (Invitrogen, Foster City, CA, USA). Then, the proteins were transferred from the gel to nitrocellulose membranes (Hybond ECL; Amersham Biosciences, Piscataway, NJ) in the presence of NuGAGE 20× transfer buffer (Invitrogen, Foster City, CA, USA). After blocking, membranes were incubated with primary antibodies diluted in 5% bovine serum albumin (BSA) (Sigma-Aldrich, St Louis, MO) at 4° C. overnight. For TTP/ZFP36, a custom-made affinity purified TTP polyclonal antibody and against C-terminal end of TTP and was used previously. This antibody is specific to TTP/ZFP36, but not the ortholog: ZFP36L1 when using 0.5% NP40 buffer instead of Laemmli buffer. Other antibodies are: anti-PLK1 (dilution 1:1000, Cell signaling, Massachusetts, USA), anti-GAPDH (dilution 1:500, Abcam, MA, USA), anti-HA, dilution 1:5000, Roche, Upper Bavaria, Germany). Thereafter, the membranes were incubated with corresponding secondary antibodies (diluted in 5% BSA, 1:2000 dilution) (Santa Cruz Biotech, Santa Cruz, CA) for 1-3 hrs. Protein bands were detected using ECL Western blotting detection reagents (Amersham Biosciences, Amersham, UK) in Molecular Imager ChemiDoc machine (BioRad, Hercules, CA, USA).
An exemplary kinase inhibitor, namely volasertib, was tested for the effects on the level of phosphorylation of TTP. […] The maximum dosage tested was 300 nM, and the lowest tested dose was 10 nM and was still effective (FIG. 2A). […] There was no change in the mobility of ZFP36 as observed with CIP treatment, indicating a partial, rather than complete de-phosphorylation event (as with CIP).

[3] = test system: uPA; experiment: Western blotting of uPA protein (TTP target) after volasertib; format: cell-based; conditions: volasertib 330 nM time course, FIG. 2C
Method: The cells were lysed in a mixture of 0.5% NP40 buffer, protease inhibitor and phosphatase inhibitor. The calf intestinal alkaline phosphatase (CIP, Promega, Madison, WI, USA) was used to verify the phosphorylation status of TTP/ZFP36, 20 units were added to the cell lysate (per 250 ul). The cell lysates were loaded and subjected to electrophoresis on 4-12% NuPAGE Bis-Tris gel (Invitrogen, Foster City, CA, USA). Then, the proteins were transferred from the gel to nitrocellulose membranes (Hybond ECL; Amersham Biosciences, Piscataway, NJ) in the presence of NuGAGE 20× transfer buffer (Invitrogen, Foster City, CA, USA). After blocking, membranes were incubated with primary antibodies diluted in 5% bovine serum albumin (BSA) (Sigma-Aldrich, St Louis, MO) at 4° C. overnight. For TTP/ZFP36, a custom-made affinity purified TTP polyclonal antibody and against C-terminal end of TTP and was used previously. This antibody is specific to TTP/ZFP36, but not the ortholog: ZFP36L1 when using 0.5% NP40 buffer instead of Laemmli buffer. Other antibodies are: anti-PLK1 (dilution 1:1000, Cell signaling, Massachusetts, USA), anti-GAPDH (dilution 1:500, Abcam, MA, USA), anti-HA, dilution 1:5000, Roche, Upper Bavaria, Germany). […] Protein bands were detected using ECL Western blotting detection reagents (Amersham Biosciences, Amersham, UK) in Molecular Imager ChemiDoc machine (BioRad, Hercules, CA, USA). […]

[4] = test system: MDA-MB-231 xenografts; experiment: MDA-MB-231 xenograft tumor growth in nude mice; format: in vivo
Method: (§1) FIGS. 4A-4B show kinase inhibition in mice and reduction in TTP phosphorylation. • 4A) PLK1 inhibition and tumor size in mice; MDA-MB-231 xenografts were injected into the mammary fat pad of female nude mice; when tumors become palpable, mice were treated with either volasertib (10 mg/kg) or vehicle twice weekly. The tumor size was calculated as described in Methods. Data are Mean±SEM from a nine-mouse experiment as indicated. Two-way ANOVA was performed for overall effect with Sidak's multiple comparison test (*p<0.05, **** p<0.0001). 4B) The effect of volasertib on TTP/ZFP36 phosphorylation; WB of tumor tissues from each mouse as probed with anti-TTP/ZFP36 or GAPDH as the loading control.
Nude mice were purchased from Jackson Laboratories (Bar Harbor, Maine, USA). The mice were housed at the animal facility at King Faisal Specialist Hospital and Research Center (KFSHRC) and maintained in accordance with protocols approved by the institution Animal Care and Use Committee. […] Tumor growth was measured by caliper, and the volume was calculated by the formula (π/6×L×M2), where L and M refer to the large and small diameters of each tumor, respectively. Mice weight and tumor size were recorded weekly. […]

[5] = test system: phosphorylated TTP/ZFP36; experiment: Western blotting of phosphorylated TTP/ZFP36 in excised xenograft tumor tissues; parameters: species or system nude mice; conditions: 10 mg/kg in vivo treatment, Western blot, FIG. 4B
Method: as §1
The cells were lysed in a mixture of 0.5% NP40 buffer, protease inhibitor and phosphatase inhibitor. […] Protein bands were detected using ECL Western blotting detection reagents (Amersham Biosciences, Amersham, UK) in Molecular Imager ChemiDoc machine (BioRad, Hercules, CA, USA).
Nude mice were purchased from Jackson Laboratories (Bar Harbor, Maine, USA). […] Tumor growth was measured by caliper, and the volume was calculated by the formula (π/6×L×M2), where L and M refer to the large and small diameters of each tumor, respectively. Mice weight and tumor size were recorded weekly. […]

[6] = dose response, 10 nM to 300 nM, Western blot, FIG. 2A
[7] = time course, volasertib 330 nM, FIG. 2B

SMILES	levels of phosphorylated TTP [1]	lowest tested dose still effective on TTP / phosphorylated TTP abundance ([2]; FIG. 2A) [nM]	change in the mobility of ZFP36 (partial rather than complete de-phosphorylation) ([2]; compared with CIP treatment)	abundance of phosphorylated TTP [2, 6]	abundance of total TTP [2, 6]	time after treatment at which effect on phosphorylated TTP is first observed [2, 7] [h]	time after treatment of maximal effect on phosphorylated TTP [2, 7] [h]	abundance of the uPA protein [3]	tumor growth versus control group ([4]; 10 mg/kg intraperitoneal twice a week, female nude mice, FIG. 4A upper panel)	difference in tumor volume versus vehicle ([4]; 10 mg/kg twice a week, after 4 weeks of treatment, FIG. 4A lower panel)	phosphorylated TTP/ZFP36 levels in excised tumor tissues versus control [5]
CS(=O)(=O)CCNCc1ccc(-c2ccc3ncnc(Nc4ccc(OCc5cccc(F)c5)c(Cl)c4)c3c2)o1 [lapatinib]	reduce the levels of phosphorylated TTP										
CC[C@@H]1C(=O)N(C)c2cnc(Nc3ccc(C(=O)N[C@H]4CC[C@H](N5CCN(CC6CC6)CC5)CC4)cc3OC)nc2N1C(C)C [volasertib]		10	no change	reduced in a dose-dependent manner	reduced in a dose-dependent manner	2	8	reduced	slower growth rate and began to regress by the end of the experiment	statistically significant difference	markedly reduced
